*1 amine or outer side, *2 acyl side, *3 side chain or, on linkers, in order; H or OH if unused. Where a SMILES comes first, the peptide text is derived from it. Bridges are numbered along the chain shown (N, C = ends). [ ]: non-standard residue; d: D form. Adda = CO[C@@H](Cc1ccccc1)[C@@H](C)/C=C(C)/C=C/[C@H](N[*:1])[C@H](C)C(=O)[*:2]; dAsp(3S-Me) = C[C@H](C(=O)[*:3])[C@@H](N[*:1])C(=O)[*:2]; d(γGlu) = O=C(O)[C@@H](CCC(=O)[*:2])N[*:1]; NMeDha = C=C(NC)C(=O)O
Tests used:
EpiIntestinal™ tissues [1] = format: cell-based, human
EpiIntestinal™ tissues [2] = format: in vitro ADME, human
MRP2 [3] = biological target: T1, MRP2 (Homo sapiens, UniProt Q92887); format: in vitro ADME
T1 construct: EpiIntestinal™ tissues express all the influx and efflux transporters that are considered relevant; host or cells: EpiIntestinal™ 3D reconstructed human small-intestinal epithelium (normal human primary cells, single donor)
T1 sequence (Q92887 whole entry): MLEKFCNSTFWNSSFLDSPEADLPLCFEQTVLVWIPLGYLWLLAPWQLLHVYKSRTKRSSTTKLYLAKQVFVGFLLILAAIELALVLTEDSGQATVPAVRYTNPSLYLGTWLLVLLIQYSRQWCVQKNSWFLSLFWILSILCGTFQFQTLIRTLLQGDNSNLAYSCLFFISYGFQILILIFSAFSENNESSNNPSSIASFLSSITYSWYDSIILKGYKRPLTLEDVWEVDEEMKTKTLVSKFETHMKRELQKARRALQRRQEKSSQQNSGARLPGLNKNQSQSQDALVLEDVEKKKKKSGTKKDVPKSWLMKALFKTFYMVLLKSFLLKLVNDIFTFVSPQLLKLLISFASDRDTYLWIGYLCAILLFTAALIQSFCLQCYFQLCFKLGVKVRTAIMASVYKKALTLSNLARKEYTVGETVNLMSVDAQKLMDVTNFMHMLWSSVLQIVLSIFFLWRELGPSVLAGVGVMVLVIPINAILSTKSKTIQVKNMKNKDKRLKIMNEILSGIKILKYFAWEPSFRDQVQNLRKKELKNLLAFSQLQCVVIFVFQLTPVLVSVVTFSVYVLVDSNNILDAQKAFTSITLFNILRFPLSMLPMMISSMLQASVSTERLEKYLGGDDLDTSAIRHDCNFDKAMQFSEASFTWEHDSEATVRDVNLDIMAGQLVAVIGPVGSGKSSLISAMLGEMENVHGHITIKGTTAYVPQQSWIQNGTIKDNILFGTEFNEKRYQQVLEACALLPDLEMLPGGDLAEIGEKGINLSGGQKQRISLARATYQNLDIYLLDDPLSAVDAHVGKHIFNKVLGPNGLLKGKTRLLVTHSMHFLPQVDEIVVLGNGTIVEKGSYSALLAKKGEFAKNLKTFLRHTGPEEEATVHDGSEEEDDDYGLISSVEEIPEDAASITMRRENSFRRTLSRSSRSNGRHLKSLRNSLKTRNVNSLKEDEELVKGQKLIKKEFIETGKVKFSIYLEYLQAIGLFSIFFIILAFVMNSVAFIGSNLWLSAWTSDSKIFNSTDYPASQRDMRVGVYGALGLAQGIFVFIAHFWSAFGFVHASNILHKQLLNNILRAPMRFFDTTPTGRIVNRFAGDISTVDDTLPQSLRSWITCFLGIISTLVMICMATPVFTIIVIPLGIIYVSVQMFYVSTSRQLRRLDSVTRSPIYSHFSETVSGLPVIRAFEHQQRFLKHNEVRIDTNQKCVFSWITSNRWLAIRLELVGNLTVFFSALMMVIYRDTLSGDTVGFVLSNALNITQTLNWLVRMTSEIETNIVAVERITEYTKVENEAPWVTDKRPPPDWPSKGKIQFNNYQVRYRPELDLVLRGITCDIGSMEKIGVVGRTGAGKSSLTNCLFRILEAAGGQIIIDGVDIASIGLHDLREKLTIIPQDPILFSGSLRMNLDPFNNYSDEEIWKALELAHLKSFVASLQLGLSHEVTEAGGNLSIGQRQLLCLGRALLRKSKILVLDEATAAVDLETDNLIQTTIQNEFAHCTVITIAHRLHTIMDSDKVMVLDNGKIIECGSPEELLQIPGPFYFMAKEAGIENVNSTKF

P-gp = biological target: T2, P-gp (Homo sapiens, UniProt P08183); assay: Transport with/without P-gp inhibitor verapamil in EpiIntestinal™; format: in vitro ADME
T2 construct: EpiIntestinal™ tissues express all the influx and efflux transporters that are considered relevant; host or cells: EpiIntestinal™ 3D reconstructed human small-intestinal epithelium (normal human primary cells, single donor)
T2 sequence (P08183 whole entry): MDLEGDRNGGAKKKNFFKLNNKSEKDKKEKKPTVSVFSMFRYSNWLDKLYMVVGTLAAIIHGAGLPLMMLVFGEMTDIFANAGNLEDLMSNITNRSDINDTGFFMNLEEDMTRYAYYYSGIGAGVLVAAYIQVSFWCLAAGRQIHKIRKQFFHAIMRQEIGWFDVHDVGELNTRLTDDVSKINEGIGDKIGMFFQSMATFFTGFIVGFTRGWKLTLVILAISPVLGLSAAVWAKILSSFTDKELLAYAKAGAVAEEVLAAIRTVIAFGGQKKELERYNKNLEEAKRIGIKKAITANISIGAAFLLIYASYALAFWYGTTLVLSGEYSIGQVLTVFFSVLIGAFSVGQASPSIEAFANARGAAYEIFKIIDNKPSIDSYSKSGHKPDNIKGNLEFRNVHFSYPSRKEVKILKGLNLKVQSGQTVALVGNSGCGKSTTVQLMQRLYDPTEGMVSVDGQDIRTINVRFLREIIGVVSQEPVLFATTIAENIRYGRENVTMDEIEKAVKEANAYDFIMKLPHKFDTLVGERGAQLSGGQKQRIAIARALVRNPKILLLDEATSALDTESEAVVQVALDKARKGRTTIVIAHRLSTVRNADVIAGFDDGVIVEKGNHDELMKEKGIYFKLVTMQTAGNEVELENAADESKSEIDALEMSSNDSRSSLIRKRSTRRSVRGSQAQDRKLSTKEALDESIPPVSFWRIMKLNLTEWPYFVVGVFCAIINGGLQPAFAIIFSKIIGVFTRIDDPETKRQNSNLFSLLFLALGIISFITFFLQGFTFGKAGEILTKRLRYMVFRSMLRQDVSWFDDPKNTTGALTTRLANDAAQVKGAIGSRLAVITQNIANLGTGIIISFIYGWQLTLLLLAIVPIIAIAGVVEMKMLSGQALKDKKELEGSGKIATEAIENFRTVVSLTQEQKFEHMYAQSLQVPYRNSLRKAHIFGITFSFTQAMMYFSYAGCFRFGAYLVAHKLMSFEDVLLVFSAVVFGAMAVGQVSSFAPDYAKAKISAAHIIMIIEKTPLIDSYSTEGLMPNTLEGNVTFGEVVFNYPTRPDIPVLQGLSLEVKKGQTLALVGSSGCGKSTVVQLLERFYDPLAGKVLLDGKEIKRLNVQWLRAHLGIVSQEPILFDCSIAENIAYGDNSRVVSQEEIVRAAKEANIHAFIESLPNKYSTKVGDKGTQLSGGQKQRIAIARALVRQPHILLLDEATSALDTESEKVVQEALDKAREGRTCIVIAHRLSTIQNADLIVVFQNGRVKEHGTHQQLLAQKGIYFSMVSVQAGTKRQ

[4] = test system: EpiIntestinal™ 3D human reconstructed intestinal epithelium; format: in vitro ADME
Caco-2 cell monolayers = conditions: cited from earlier work
BCRP = assay: in vitro; conditions: human, not told
MRP2 [5] = biological target: T1, MRP2; conditions: cited from earlier work
OATP 2B1 = OATP 2B1 (Homo sapiens, UniProt O94956); format: in vitro ADME
Sequence of OATP 2B1 (O94956 whole entry): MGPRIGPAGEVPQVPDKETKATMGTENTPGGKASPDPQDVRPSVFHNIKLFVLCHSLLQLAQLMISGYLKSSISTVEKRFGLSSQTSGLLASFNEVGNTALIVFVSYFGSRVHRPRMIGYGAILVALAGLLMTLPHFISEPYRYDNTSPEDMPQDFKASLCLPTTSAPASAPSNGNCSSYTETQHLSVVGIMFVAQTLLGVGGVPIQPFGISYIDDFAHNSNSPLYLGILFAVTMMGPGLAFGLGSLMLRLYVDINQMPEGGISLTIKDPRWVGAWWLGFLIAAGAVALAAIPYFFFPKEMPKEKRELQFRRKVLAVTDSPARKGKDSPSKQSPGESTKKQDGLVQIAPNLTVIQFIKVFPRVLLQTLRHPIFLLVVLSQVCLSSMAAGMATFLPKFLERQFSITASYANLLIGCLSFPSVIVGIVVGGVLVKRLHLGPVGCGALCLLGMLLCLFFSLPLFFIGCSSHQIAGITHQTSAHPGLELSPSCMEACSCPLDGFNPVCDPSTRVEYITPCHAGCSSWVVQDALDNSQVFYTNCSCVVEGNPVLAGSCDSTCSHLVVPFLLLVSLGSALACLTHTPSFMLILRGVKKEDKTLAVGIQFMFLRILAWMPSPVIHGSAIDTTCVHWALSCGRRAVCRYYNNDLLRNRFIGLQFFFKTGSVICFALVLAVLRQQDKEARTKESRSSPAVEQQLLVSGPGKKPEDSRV

Compound	toxicity, measured as barrier integrity with LY (EpiIntestinal™ tissues [1])	Efflux ratio (ER), Papp BL-AP / Papp AP-BL (EpiIntestinal™ tissues [2])	effect of cyclosporin on MC transport (MRP2 [3])	effect of co-administration of verapamil (P-gp inhibitor) on MC transport (P-gp)	absorption (parent compound detected in the BL compartment), % of the administered dose [4]	amount recovered in the BL compartment at 4 h, percentage of the applied dose [4]	dependence of Papp on the donor concentration [4]	toxin reaching the basolateral compartment (Caco-2 cell monolayers)	efflux ratio (BCRP)	amount recovered in the cellular pellet, % of the administered dose [4]	transport (efflux) by MRP2 (MRP2 [5])	effect of pravastatin (OATP 2B1 inhibitor) on MC uptake (OATP 2B1)	permeability coefficient Papp (AP-BL), time course [4]	time at which toxin was detectable in the receptor fluid [4]
C=C1C(=O)N[C@H](C)C(=O)N[C@@H](CC(C)C)C(=O)N[C@@H](C(=O)O)[C@H](C)C(=O)N[C@@H](CCCNC(=N)N)C(=O)N[C@@H](/C=C/C(C)=C/[C@H](C)[C@H](Cc2ccccc2)OC)[C@H](C)C(=O)N[C@@H](C(=O)O)CCC(=O)N1C [MC-LR, Microcystin-LR] (R[Adda][d(γGlu)][NMeDha][dA]L[dAsp(3S-Me)]-OH; lactam N-7)	no toxicity	3.65	significantly decreased the efflux	not affected	around 5%	4.6%	independent on the donor concentrations	0.3–1.35%	–	–	–	–	–	–
C[C@]12CC[C@H]3[C@@H](CCC4=CC(=O)CC[C@@]43C)[C@@H]1CC[C@@H]2O [testosterone, Testosterone]	–	–	–	–	–	–	–	–	1.95	–	–	–	–	–
Microcystin-LF [MC-LF]	no toxicity	–	–	–	–	–	dose dependent increase in permeability	–	–	less than 1%	transported more rapidly than MC-LR and–RR	–	–	–
Microcystin-LW [MC-LW]	no toxicity	2.65	not reaching the statistical significance	not affected	–	–	dose dependent increase in permeability	–	–	less than 1%	–	slightly decreased	–	–
Microcystin-RR [MC-RR]	no toxicity	–	–	–	around 5%	3.6%	independent on the donor concentrations	–	–	–	–	–	5.73	30 min
Microcystin-YR [MC-YR]	no toxicity	–	–	–	around 5%	4.3%	independent on the donor concentrations	–	–	–	–	–	–	–

— article PMC9388863, “Congeners-Specific Intestinal Absorption Of Microcystins In An In Vitro 3D Human Intestinal Epithelium: The Role Of Influx/Efflux Transporters” (Frontiers in Toxicology, 2022)
